Reference: ChEMBL document CHEMBL4138123, “Design, synthesis and biological evaluation of novel pyrazolochalcones as potential modulators of PI3K/Akt/mTOR pathway and inducers of apoptosis in breast cancer cells” (Eur J Med Chem, 2017)

How the values were obtained:
Format in all cases: functional
ACHN [1] = assay: Cytotoxicity against human ACHN cells assessed as cell growth at 0.01 uM after 48 hrs by sulforhodamine B assay relative to control; details: read-out: Activity
HCT-15 [2] = assay: Cytotoxicity against human HCT15 cells assessed as cell growth at 0.1 uM after 48 hrs by sulforhodamine B assay relative to control; details: HCT-15, 48 h, read-out: Activity
HT-29 = assay: Cytotoxicity against human HT-29 cells assessed as cell growth at 0.1 uM after 48 hrs by sulforhodamine B assay relative to control; details: HT-29, 48 h, read-out: Activity
PC-3 [3] = assay: Cytotoxicity against human PC3 cells assessed as cell growth at 100 uM after 48 hrs by sulforhodamine B assay relative to control; details: PC-3, 48 h, read-out: Activity
SW-620 = assay: Cytotoxicity against human SW620 cells assessed as cell growth at 0.01 uM after 48 hrs by sulforhodamine B assay relative to control; details: SW-620, 48 h, read-out: Activity
BT-549 = assay: Cytotoxicity against human BT549 cells assessed as cell growth at 100 uM after 48 hrs by sulforhodamine B assay relative to control; details: BT-549, 48 h, read-out: Activity
NCI/ADR-RES = assay: Cytotoxicity against human NCI/ADR-RES cells assessed as cell growth at 0.1 uM after 48 hrs by sulforhodamine B assay relative to control; details: read-out: Activity
MDA-MB-468 = assay: Cytotoxicity against human MDA-MB-468 cells assessed as cell growth at 1 uM after 48 hrs by sulforhodamine B assay relative to control; details: MDA-MB-468, 48 h, read-out: Activity
A498 [4] = assay: Cytotoxicity against human A498 cells assessed as cell growth at 0.1 uM after 48 hrs by sulforhodamine B assay relative to control; details: A498, 48 h, read-out: Activity
NCI-H23 = assay: Cytotoxicity against human NCI-H23 cells assessed as growth inhibition after 48 hrs by sulforhodamine B assay; details: NCI-H23, 48 h; for CC50: read-out: LC50 (the source's name)
SNB-19 = assay: Cytotoxicity against human SNB19 cells assessed as growth inhibition after 48 hrs by sulforhodamine B assay; details: SNB-19, 48 h; for CC50: read-out: LC50 (the source's name)
TK-10 [5] = assay: Cytotoxicity against human TK10 cells assessed as cell growth at 0.01 uM after 48 hrs by sulforhodamine B assay relative to control; details: TK-10, 48 h, read-out: Activity
ACHN [6] = assay: Cytotoxicity against human ACHN cells assessed as cell growth at 10 uM after 48 hrs by sulforhodamine B assay relative to control; details: read-out: Activity
MOLT-4 = assay: Cytotoxicity against human MOLT4 cells assessed as cell growth at 100 uM after 48 hrs by sulforhodamine B assay relative to control; details: MOLT-4, 48 h, read-out: Activity
A498 [7] = assay: Cytotoxicity against human A498 cells assessed as growth inhibition after 48 hrs by sulforhodamine B assay; details: A498, 48 h
HCC 2998 = assay: Cytotoxicity against human HCC2998 cells assessed as cell growth at 10 uM after 48 hrs by sulforhodamine B assay relative to control; details: HCC 2998, 48 h, read-out: Activity
TK-10 [8] = assay: Cytotoxicity against human TK10 cells assessed as cell growth at 10 uM after 48 hrs by sulforhodamine B assay relative to control; details: TK-10, 48 h, read-out: Activity
HOP-62 = assay: Cytotoxicity against human HOP62 cells assessed as growth inhibition after 48 hrs by sulforhodamine B assay; details: HOP-62, 48 h
PC-3 [9] = assay: Cytotoxicity against human PC3 cells assessed as cell growth at 10 uM after 48 hrs by sulforhodamine B assay relative to control; details: PC-3, 48 h, read-out: Activity
HCT-15 [10] = assay: Cytotoxicity against human HCT15 cells assessed as cell growth at 1 uM after 48 hrs by sulforhodamine B assay relative to control; details: HCT-15, 48 h, read-out: Activity
OVCAR-8 = assay: Cytotoxicity against human OVCAR8 cells assessed as cell growth at 0.01 uM after 48 hrs by sulforhodamine B assay relative to control; details: OVCAR-8, 48 h, read-out: Activity
M14 = assay: Cytotoxicity against human M14 cells assessed as cell growth at 1 uM after 48 hrs by sulforhodamine B assay relative to control; details: M14, 48 h, read-out: Activity
KM12 = assay: Cytotoxicity against human KM12 cells assessed as cell growth at 100 uM after 48 hrs by sulforhodamine B assay relative to control; details: KM12, 48 h, read-out: Activity
SK-MEL-28 = assay: Cytotoxicity against human SK-MEL-28 cells assessed as cell growth at 0.1 uM after 48 hrs by sulforhodamine B assay relative to control; details: SK-MEL-28, 48 h, read-out: Activity
NCI-H460 = assay: Cytotoxicity against human NCI-H460 cells assessed as cell growth at 0.01 uM after 48 hrs by sulforhodamine B assay relative to control; details: NCI-H460, 48 h, read-out: Activity
SK-MEL-5 = assay: Cytotoxicity against human SK-MEL-5 cells assessed as growth inhibition after 48 hrs by sulforhodamine B assay; details: SK-MEL-5, 48 h
ACHN [11] = assay: Cytotoxicity against human ACHN cells assessed as cell growth at 100 uM after 48 hrs by sulforhodamine B assay relative to control; details: read-out: Activity
MDA-MB-231 = assay: Cytotoxicity against human MDA-MB-231 cells assessed as cell growth at 100 uM after 48 hrs by sulforhodamine B assay relative to control; details: MDA-MB-231, 48 h, read-out: Activity
SR = assay: Cytotoxicity against human SR cells assessed as cell growth at 0.1 uM after 48 hrs by sulforhodamine B assay relative to control; details: read-out: Activity
DU-145 = assay: Cytotoxicity against human DU145 cells assessed as cell growth at 1 uM after 48 hrs by sulforhodamine B assay relative to control; details: DU-145, 48 h, read-out: Activity
MDA-MB-435 = assay: Cytotoxicity against human MDA-MB-435 cells assessed as cell growth at 0.1 uM after 48 hrs by sulforhodamine B assay relative to control; details: MDA-MB-435, 48 h, read-out: Activity
TK-10 [12] = assay: Cytotoxicity against human TK10 cells assessed as growth inhibition after 48 hrs by sulforhodamine B assay; details: TK-10, 48 h
RPMI-8226 = assay: Cytotoxicity against human RPMI8226 cells assessed as growth inhibition after 48 hrs by sulforhodamine B assay; details: RPMI-8226, 48 h
Malme-3M = assay: Cytotoxicity against human MALME-3M cells assessed as cell growth at 100 uM after 48 hrs by sulforhodamine B assay relative to control; details: read-out: Activity
UO-31 = assay: Cytotoxicity against human UO31 cells assessed as growth inhibition after 48 hrs by sulforhodamine B assay; details: UO-31, 48 h

For `COc1cc(C(=O)/C=C/c2cc(-c3ccc4c(c3)OCO4)n[nH]2)cc(OC)c1OC`, the growth at 0.01 µM (ACHN [1]) was 102%, the growth at 0.1 µM (HCT-15 [2]) was 101% and the growth at 0.1 µM (HT-29) was 97%. It also gave a growth at 100 µM (PC-3 [3]) of -84%, a growth at 0.01 µM (SW-620) of 98% and a growth at 100 µM (BT-549) of -77%. It also gave a growth at 0.1 µM (NCI/ADR-RES) of 98%, a growth at 1 µM (MDA-MB-468) of 68% and a growth at 0.1 µM (A498 [4]) of 90%. The GI50 (NCI-H23) was 2.9 µM, the TGI (NCI-H23) was 10.3 µM and the CC50 (NCI-H23) was 40.3 µM. For the same compound, the GI50 (SNB-19) was 2.34 µM, the TGI (SNB-19) was 11.7 µM and the CC50 (SNB-19) was 35.6 µM. The growth at 0.01 µM (TK-10 [5]) was 93%, the growth at 10 µM (ACHN [6]) was -43% and the growth at 100 µM (MOLT-4) was -13%. For the same compound, the GI50 (A498 [7]) was 1.75 µM, the LC50 (A498 [7]) was 15.3 µM and the TGI (A498 [7]) was 4.65 µM. For the same compound, the growth at 10 µM (HCC 2998) was -64%, the growth at 10 µM (TK-10 [8]) was -18% and the GI50 (HOP-62) was 2.33 µM. It also gave an LC50 (HOP-62) of 24.5 µM, a TGI (HOP-62) of 6.24 µM and a growth at 10 µM (PC-3 [9]) of -46%. The growth at 1 µM (HCT-15 [10]) was 77%, the growth at 0.01 µM (OVCAR-8) was 98% and the growth at 1 µM (M14) was 96%. It also gave a growth at 100 µM (KM12) of -79%, a growth at 0.1 µM (SK-MEL-28) of 99% and a growth at 0.01 µM (NCI-H460) of 99%. It also gave a GI50 (SK-MEL-5) of 3.32 µM, an LC50 (concentration killing 50% of cells) (SK-MEL-5) of 37.7 µM and a TGI (SK-MEL-5) of 13.3 µM. The growth at 100 µM (ACHN [11]) was -68%, the growth at 100 µM (MDA-MB-231) was -97% and the growth at 0.1 µM (SR) was 94%. For the same compound, the growth at 1 µM (DU-145) was 97%, the growth at 0.1 µM (MDA-MB-435) was 95% and the GI50 (TK-10 [12]) was 2.9 µM. For the same compound, the LC50 (TK-10 [12]) was 25.6 µM, the TGI (TK-10 [12]) was 7.17 µM and the GI50 (RPMI-8226) was 0.56 µM. For the same compound, the LC50 (RPMI-8226) was > 100 µM, the TGI (RPMI-8226) was 2.53 µM and the growth at 100 µM (Malme-3M) was -91%. It also gave a GI50 (UO-31) of 1.34 µM, an LC50 (UO-31) of 5.33 µM and a TGI (UO-31) of 2.67 µM.
Work on `COc1ccc(C(=O)/C=C/c2cc(-c3cc(OC)c(OC)c(OC)c3)n[nH]2)cc1OC` yielded a growth at 0.01 µM (ACHN [1]) of 101%, a growth at 0.1 µM (HCT-15 [2]) of 98% and a growth at 0.1 µM (HT-29) of 105%. For the same compound, the growth at 100 µM (PC-3 [3]) was -95%, the growth at 0.01 µM (SW-620) was 101% and the growth at 100 µM (BT-549) was -75%. The growth at 0.1 µM (NCI/ADR-RES) was 95%, the growth at 1 µM (MDA-MB-468) was 45% and the growth at 0.1 µM (A498 [4]) was 86%. The TGI (NCI-H23) was 5.24 µM, the CC50 (NCI-H23) was 22.7 µM and the TGI (SNB-19) was 3.01 µM. The CC50 (SNB-19) was 6.36 µM, the growth at 0.01 µM (TK-10 [5]) was 85% and the growth at 10 µM (ACHN [6]) was -95%. For the same compound, the growth at 100 µM (MOLT-4) was -23%, the LC50 (A498 [7]) was 6 µM and the TGI (A498 [7]) was 2.98 µM. It also gave a growth at 10 µM (HCC 2998) of -85%, a growth at 10 µM (TK-10 [8]) of 100% and an LC50 (HOP-62) of 5.35 µM. It also gave a TGI (HOP-62) of 2.77 µM, a growth at 10 µM (PC-3 [9]) of -88% and a growth at 1 µM (HCT-15 [10]) of 65%. For the same compound, the growth at 0.01 µM (OVCAR-8) was 97%, the growth at 1 µM (M14) was 94% and the growth at 100 µM (KM12) was -75%. The growth at 0.1 µM (SK-MEL-28) was 104%, the growth at 0.01 µM (NCI-H460) was 103% and the LC50 (concentration killing 50% of cells) (SK-MEL-5) was 5.59 µM. It also gave a TGI (SK-MEL-5) of 3.03 µM, a growth at 100 µM (ACHN [11]) of -91% and a growth at 100 µM (MDA-MB-231) of -84%. The growth at 0.1 µM (SR) was 81%, the growth at 1 µM (DU-145) was 32% and the growth at 0.1 µM (MDA-MB-435) was 92%. The LC50 (TK-10 [12]) was 5.1 µM, the TGI (TK-10 [12]) was 2.6 µM and the LC50 (RPMI-8226) was > 100 µM. For the same compound, the TGI (RPMI-8226) was 1.11 µM, the growth at 100 µM (Malme-3M) was -81% and the LC50 (UO-31) was 5.17 µM. The TGI (UO-31) was 2.57 µM.
